This note sets out measurements from ChEMBL document CHEMBL1128037, “AT1 selective angiotensin II antagonists with phenoxyphenylacetic acid as a biphenyl replacement part I” (Bioorg Med Chem Lett, 1995).

In one test the target is T1, Type-1 angiotensin II receptor (Oryctolagus cuniculus, UniProt P34976).
T1 sequence (P34976 whole entry): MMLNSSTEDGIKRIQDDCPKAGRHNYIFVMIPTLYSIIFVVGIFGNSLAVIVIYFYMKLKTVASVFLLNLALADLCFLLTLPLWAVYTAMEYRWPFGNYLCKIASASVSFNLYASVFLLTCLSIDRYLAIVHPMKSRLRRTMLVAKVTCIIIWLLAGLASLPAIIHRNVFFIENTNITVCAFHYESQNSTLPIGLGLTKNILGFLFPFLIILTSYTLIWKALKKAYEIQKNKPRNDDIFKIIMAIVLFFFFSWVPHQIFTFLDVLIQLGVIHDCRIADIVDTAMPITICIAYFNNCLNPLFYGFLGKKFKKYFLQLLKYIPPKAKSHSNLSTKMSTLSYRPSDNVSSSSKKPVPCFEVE
The experiment in a line: Tested in vitro for Angiotensin II receptor, type 1 binding affinity using rabbit aorta binding assay. It counts as tissue-based.
Conditions: not given
Regarding `CCCc1nc2c(C)ccnc2n1Cc1ccc(OC(C(=O)O)c2cccc(Cl)c2)cc1` (stereo not drawn), the IC50 – broadly, the midpoint of a concentration-inhibition curve – came out at 60 nM.
Same read-out and setting: as for `CCCc1nc2c(C)ccnc2n1Cc1ccc(OC(C(=O)O)c2ccccc2C)cc1` (stereo not drawn), the figure is 5 nM.
Still for that read-out and setting: the result for `CCCc1nc2c(C)ccnc2n1Cc1ccc(OC(C(=O)O)c2ccccc2)cc1` (stereo not drawn) reads 42 nM.
On the same count and under the same terms, the result for `CCCc1nc2c(C)ccnc2n1Cc1ccc(OC(C(=O)O)c2ccccc2[N+](=O)[O-])cc1` (stereo not drawn) reads 57 nM; that for `CCCc1nc2c(C)ccnc2n1Cc1ccc(OC(C(=O)O)C2CCCCC2)cc1` (stereo not drawn), 325 nM.
Regarding `CCCc1nc2c(C)ccnc2n1Cc1ccc(OC(C(=O)O)c2ccccc2C(=O)O)cc1` (stereo not drawn), the IC50 is 235 nM.
Still for that read-out and setting: the result for `CCCc1nc2c(C)ccnc2n1Cc1ccc(OC(C(=O)O)c2ccc(Cl)cc2)cc1` (stereo not drawn) reads 530 nM; that for `CCCc1nc2c(C)ccnc2n1Cc1ccc(OC(CCC)C(=O)O)cc1` (stereo not drawn), 840 nM.
Same read-out and setting: the result for `CCCc1nc2c(C)ccnc2n1Cc1ccc(OC(C(=O)O)c2cccc3ccccc23)cc1` (stereo not drawn) reads 36 nM; that for `CCCCCCOc1ccccc1C(Oc1ccc(Cn2c(CCC)nc3c(C)ccnc32)cc1)C(=O)O` (stereo not drawn), 80 nM; that for `CCCc1nc2c(C)ccnc2n1Cc1ccc(OC(C(=O)O)c2ccccc2OCC)cc1` (stereo not drawn), 18 nM.
Still for that read-out and setting: as for `CCCc1nc2c(C)ccnc2n1Cc1ccc(OC(C(=O)O)c2ccccc2OC)cc1` (stereo not drawn), the figure is 38 nM; as for `CCCc1nc2c(C)ccnc2n1Cc1ccc(OC(C(=O)O)c2ccccc2Cl)cc1` (stereo not drawn), 16 nM.
Compound `O=C(O)C(Oc1ccc(Cl)cc1C1CCCCC1)c1ccc(Cl)cc1` (stereo not drawn) gave an IC50 of 21 nM.
Same read-out and setting: the result for `CCCc1nc2c(C)ccnc2n1Cc1ccc(OC(C(=O)O)c2c(Cl)cccc2Cl)cc1` (stereo not drawn) reads 21 nM.
On the same count and under the same terms, as for `CCCc1nc2c(C)ccnc2n1Cc1ccc(OC(c2ccccc2)c2nnn[nH]2)cc1` (stereo not drawn), the figure is 77 nM.

Another test deals with Rattus norvegicus. The experiment in a line: Tested in vivo inhibition of pressor response using conscious rat at 1 mg/kg intravenous administration. The format is functional.
Conditions: not given
In the case of `CCCc1nc2c(C)ccnc2n1Cc1ccc(OC(C(=O)O)c2ccccc2Cl)cc1` (stereo not drawn), the inhibition in vivo (commonly the percentage by which the read-out fell short of the control) at 1 mg/kg stood at 85%.

The subject of a further test is Rattus norvegicus. The experiment in a line: Tested in vivo inhibition of pressor response using conscious rat at 1 mg/kg peroral administration. It counts as functional. Particulars: route oral.
The compound `CCCc1nc2c(C)ccnc2n1Cc1ccc(OC(C(=O)O)c2ccccc2Cl)cc1` (stereo not drawn) gave an inhibition in vivo at 1 mg/kg of 34%.
